In US20120130117A1, “AROMATIC SULFONIUM SALT COMPOUND” (ADEKA CORPORATION, priority 2009, published 2012):

Test: Solubility in polyvinylphenol/tetramethylammonium hydroxide (TMAH) aqueous solution
Type: physicochemical
Settings: mass ratio of compound to polyvinylphenol in saturated solution; polyvinylphenol in 3% TMAH aqueous solution; visual check, left to stand one day
Protocol: In a screw-top tube were put 0.36 g of polyvinylphenol (S-2P from Maruzen Petrochemical Co., Ltd.; Mw: 5800) and 10.00 g of a 3% TMAH aqueous solution and heated to dissolve. A 2.00 g portion of the resulting solution was put in another screw-top tube, and a small amount of each of the trifluoromethanesulfonate of each of compound Nos. 1 and 5 and comparative compound No. 1 (intermediate No. 4 obtained in step 1 of Example 1-4) was added thereto and heated. A visual check was made to see whether the compound dissolved. This operation was repeated until saturation. The saturated solution was allowed to stand one day to make sure that no solid precipitated. The mass ratio of each compound to the polyvinylphenol of the saturated solution was taken as a parameter of solubility.

SMILES	Solubility (%)
O=C(c1ccccc1)c1ccc(Sc2ccc([S+](c3ccc(F)cc3)c3ccc(F)cc3)cc2)c(F)c1 [Comp. Compound No. 1, reference compound]	< 1
O=C(c1ccccc1)c1ccc(Sc2ccc([S+](c3ccc(O)cc3)c3ccc(O)cc3)cc2)c(F)c1	70
O=C(c1ccc(O)cc1)c1ccc(Sc2ccc([S+](c3ccc(F)cc3)c3ccc(F)cc3)cc2)c(F)c1	28
